Patent US11337976B2 (Plexxikon Inc., priority 2011, dated 2022)

Test system: A375 melanoma cells (B-Raf V600E mutation)
Assay: A375 (A375_P-ERK) cell activity / cell growth inhibition assay
Format: cell-based, human
Conditions: Homo sapiens, A-375; A375 cells (text: A375_P-ERK)
Method: Compounds are assessed in a variety of cell based assays. For example human cell lines with B-RafV600E mutation (A375 melanoma, SKMEL3 melanoma, and COLO205 colon adenocarcinoma), as well as tumorigenic cell lines with wild-type B-RAF (SW620 colon adenocarcinoma) or with Ras mutations (SKMEL2 melanoma and IPC298 melanoma).
On day 1, cells are counted, then centrifuged in a conical tube for 5 minutes at 1000 rpm.
On day 2, compound at a maximum concentration of 5 mM is serially diluted 1:3 (e.g. 10 μL with 30 μL dimethyl sulfoxide) for a total of 8 point titration with DMSO as a control. A 1 μL aliquot of each dilution point and control is added to 249 μL growth media and 50 μL is added to a well containing cells, providing 10 μM compound at the maximum concentration point. The cells are incubated for 3 days at 37° C. in 5% CO2.
ATPlite is added 25 μL to each well, shake for 2 minutes, and the cells are incubated at room temperature for 10 minutes, then luminescence is read on Safire reader. The measured luminescence correlates directly with cell number, such that the reading as a function of compound concentration is used to determine the IC50 value.

SMILES | IC50 [µM]
CCN(C)S(=O)(=O)Nc1ccc(F)c(C(=O)c2c[nH]c3ncc(-c4ccc(C5(C#N)CC5)cc4)cc23)c1F [P-0239, 5-[4-(1-cyanocyclopropyl)phenyl]-3-[3-[[ethyl(methyl)sulfamoyl]amino]-2,6-difluoro-benzoyl]-1H-pyrrolo[2,3-b]pyridine] | < 1
Cc1ncc(-c2cnc3[nH]cc(C(=O)c4cccc(NS(=O)(=O)N(C)CC5CC5)c4F)c3c2)cn1 [P-0112, 3-[3-[[cyclopropylmethyl(methyl)sulfamoyl]amino]-2-fluoro-benzoyl]-5-(2-methylpyrimidin-5-yl)-1H-pyrrolo[2,3-b]pyridine] | < 1
COc1ncc(-c2cnc3[nH]cc(C(=O)c4cccc(NS(=O)(=O)N5CCCC5C)c4F)c3c2)cn1 (stereo not drawn) [P-0074, N-[2-fluoro-3-[5-(2-methoxypyrimidin-5-yl)-1H-pyrrolo[2,3-b]pyridine-3-carbonyl]phenyl]-2-methyl-pyrrolidine-1-sulfonamide] | < 1
N#CC1(c2ccc(-c3cnc4[nH]cc(C(=O)c5cccc(NS(=O)(=O)N6CCCC6)c5F)c4c3)cc2)CC1 [P-0050, N-[3-[5-[4-(1-cyanocyclopropyl)phenyl]-1H-pyrrolo[2,3-b]pyridine-3-carbonyl]-2-fluoro-phenyl]pyrrolidine-1-sulfonamide] | < 1
CCNS(=O)(=O)Nc1ccc(F)c(C(=O)c2c[nH]c3ncc(-c4cnc(C5CC5)nc4)cc23)c1F [P-0335, [5-(2-cyclopropylpyrimidin-5-yl)-1H-pyrrolo[2,3-b]pyridin-3-yl]-[3-(ethylsulfamoylamino)-2,6-difluoro-phenyl]methanone] | < 1
CN(C)S(=O)(=O)Nc1cccc(C(=O)c2c[nH]c3ncc(-c4cnc(N5CCCC5)nc4)cc23)c1F [P-0107, 3-[3-(dimethylsulfamoylamino)-2-fluoro-benzoyl]-5-(2-pyrrolidin-1-ylpyrimidin-5-yl)-1H-pyrrolo[2,3-b]pyridine] | < 1
CC(C)CN(C)S(=O)(=O)Nc1cccc(C(=O)c2c[nH]c3ncc(I)cc23)c1F [P-0070, 3-[2-fluoro-3-[[isobutyl(methyl)sulfamoyl]amino]benzoyl]-5-iodo-1H-pyrrolo[2,3-b]pyridine] | < 1
CCN(C)S(=O)(=O)Nc1ccc(F)c(C(=O)c2c[nH]c3ncc(-c4cnc(N5CCOCC5)nc4)cc23)c1F [P-0258, 4-[5-[3-[3-[[ethyl(methyl)sulfamoyl]amino]-2,6-difluoro-benzoyl]-1H-pyrrolo[2,3-b]pyridin-5-yl]pyrimidin-2-yl]morpholine] | < 1
CCN(C)S(=O)(=O)Nc1cccc(C(=O)c2c[nH]c3ncc(C4CCC4)cc23)c1F [P-0297, 5-cyclobutyl-3-[3-[[ethyl(methyl)sulfamoyl]amino]-2-fluoro-benzoyl]-1H-pyrrolo[2,3-b]pyridine] | > 1
Cn1cc(-c2cnc3[nH]cc(C(=O)c4cccc(NS(=O)(=O)CC5CC5)c4F)c3c2)cn1 [P-0042, 1-cyclopropyl-N-[2-fluoro-3-[5-(1-methylpyrazol-4-yl)-1H-pyrrolo[2,3-b]pyridine-3-carbonyl]phenyl]methanesulfonamide] | < 1
CCN(C)S(=O)(=O)Nc1cccc(C(=O)c2c[nH]c3ncc(-c4ccc(C(F)(F)F)nc4)cc23)c1F [P-0059, 3-[3-[[ethyl(methyl)sulfamoyl]amino]-2-fluoro-benzoyl]-5-[6-(trifluoromethyl)-3-pyridyl]-1H-pyrrolo[2,3-b]pyridine] | < 1
CCN(C)S(=O)(=O)Nc1ccc(F)c(C(=O)c2c[nH]c3ncc(-c4ccc(-c5nnc(C)o5)cc4)cc23)c1F [P-0304, 2-[4-[3-[3-[[ethyl(methyl)sulfamoyl]amino]-2,6-difluoro-benzoyl]-1H-pyrrolo[2,3-b]pyridin-5-yl]phenyl]-5-methyl-1,3,4-oxadiazole] | < 1
CN(C)S(=O)(=O)Nc1ccc(F)c(C(=O)c2c[nH]c3ncc(-c4cnc(C5CC5)nc4)cc23)c1F [P-0238, 5-(2-cyclopropylpyrimidin-5-yl)-3-[3-(dimethylsulfamoylamino)-2,6-difluoro-benzoyl]-1H-pyrrolo[2,3-b]pyridine] | < 1
CCN(C)S(=O)(=O)Nc1ccc(F)c(C(=O)c2c[nH]c3ncc(-c4ccc(OC)nn4)cc23)c1F [P-0317, 3-[3-[[ethyl(methyl)sulfamoyl]amino]-2,6-difluoro-benzoyl]-5-(6-methoxypyridazin-3-yl)-1H-pyrrolo[2,3-b]pyridine] | < 1
CCN(C)S(=O)(=O)Nc1ccc(F)c(C(=O)c2c[nH]c3ncc(-c4ccc(N5CCCC5)cc4)cc23)c1F [P-0303, 3-[3-[[ethyl(methyl)sulfamoyl]amino]-2,6-difluoro-benzoyl]-5-(4-pyrrolidin-1-ylphenyl)-1H-pyrrolo[2,3-b]pyridine] | > 1
O=C(c1c(F)ccc(NS(=O)(=O)N2CCCC2)c1F)c1c[nH]c2ncc(F)c(NCC3CC3)c12 [P-0016, N-[3-[4-(cyclopropylmethylamino)-5-fluoro-1H-pyrrolo[2,3-b]pyridine-3-carbonyl]-2,4-difluoro-phenyl]pyrrolidine-1-sulfonamide] | < 1
CCN(C)S(=O)(=O)Nc1ccc(F)c(C(=O)c2c[nH]c3ncc(-c4ccc(C(F)(F)F)cc4)cc23)c1F [P-0301, 3-[3-[[ethyl(methyl)sulfamoyl]amino]-2,6-difluoro-benzoyl]-5-[4-(trifluoromethyl)phenyl]-1H-pyrrolo[2,3-b]pyridine] | < 1
O=C(c1cccc(NS(=O)(=O)N2CCCC2)c1F)c1c[nH]c2ncc(C3CC3)cc12 [P-0274, N-[3-(5-cyclopropyl-1H-pyrrolo[2,3-b]pyridine-3-carbonyl)-2-fluoro-phenyl]pyrrolidine-1-sulfonamide] | < 1
CCN(C)S(=O)(=O)Nc1ccc(F)c(C(=O)c2c[nH]c3ncc(-c4cnc(N(C)C)nc4)cc23)c1F [P-0292, 5-[2-(dimethylamino)pyrimidin-5-yl]-3-[3-[[ethyl(methyl)sulfamoyl]amino]-2,6-difluoro-benzoyl]-1H-pyrrolo[2,3-b]pyridine] | < 1
COc1ccnc(-c2cnc3[nH]cc(C(=O)c4cccc(NS(=O)(=O)N5CCCC5)c4F)c3c2)n1 [P-0325, N-[2-fluoro-3-[5-(4-methoxypyrimidin-2-yl)-1H-pyrrolo[2,3-b]pyridine-3-carbonyl]phenyl]pyrrolidine-1-sulfonamide] | < 1
CCCNS(=O)(=O)Nc1cccc(C(=O)c2c[nH]c3ncc(I)cc23)c1F [P-0117, [2-fluoro-3-(propylsulfamoylamino)phenyl]-(5-iodo-1H-pyrrolo[2,3-b]pyridin-3-yl)methanone] | > 1
CCN(CC)c1ccc(-c2cnc3[nH]cc(C(=O)c4c(F)ccc(NS(=O)(=O)N(C)CC)c4F)c3c2)cc1 [P-0308, 5-[4-(diethylamino)phenyl]-3-[3-[[ethyl(methyl)sulfamoyl]amino]-2,6-difluoro-benzoyl]-1H-pyrrolo[2,3-b]pyridine] | < 1
N#Cc1ccc(-c2cnc3[nH]cc(C(=O)c4cccc(NS(=O)(=O)N5CCCC5)c4F)c3c2)cc1 [P-0090, N-[3-[5-(4-cyanophenyl)-1H-pyrrolo[2,3-b]pyridine-3-carbonyl]-2-fluoro-phenyl]pyrrolidine-1-sulfonamide] | < 1
Nc1nccc(-c2cnc3[nH]cc(C(=O)c4c(F)ccc(NS(=O)(=O)N5CCCC5)c4F)c3c2)n1 [P-0280, N-[3-[5-(2-aminopyrimidin-4-yl)-1H-pyrrolo[2,3-b]pyridine-3-carbonyl]-2,4-difluoro-phenyl]pyrrolidine-1-sulfonamide] | < 1
